# Laboratory results published in patent US12247032B2, “Substituted pyrazolo[1,5-a]pyrimidines as inhibitors of JAK kinases” (Genentech, Inc., priority 2019, dated 2025).
# Experiments:
# [1] = target: T1, Recombinant human JAK2 kinase domain protein (Residues 812-1132) (Homo sapiens, UniProt O60674); assay: JAK2 biochemical assay (microfluidic mobility shift, peptide phosphorylation); conditions: 25 μM ATP, 0.2 nM total JAK2; Ki calculated from Ki app (tight-binding, competitive); read-out: Biochem JAK2 Ki
# T1 construct: human JAK2 kinase domain protein (Residues 812-1132); made in house; host or cells: insect cells
# In short: (§1)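 Insect-cell-expressed human JAK1 (1 nM, residues 854-1154) or JAK2 (0.2 nM, residues 812-1132) phosphorylating 1.5 μM 5-FAM peptide Y-1B with 25 μM ATP, pH 7.2 HEPES, 30 min at 22-23 °C; twelve concentrations up to 1000 nM in duplicate. Mobility-shift % conversion fitted to tight-binding quadratic for Ki^app.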
# [2] = system: JAK1 (IL-13-stimulated STAT6 phosphorylation in BEAS-2B cells); assay: P-STAT6 BEAS-2B+IL-13 cell assay; format: cell-based, human; conditions: Homo sapiens, BEAS-2B, 1 h, 1 hour compound, IL-13 15 minutes, IC50 by four-parameter fit, read-out: Cellular JAK1 PSTAT6 BEAS2B + IL13
# In short: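 BEAS-2B human bronchial epithelial cells preincubated 1 h at 37 °C with compound, then stimulated with human recombinant IL-13 for 15 min. Phospho-STAT6 (Tyr641) in lysates measured by MSD electrochemiluminescence immunoassay; IC50 from a four-parameter logistic fit of percent of control.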
# [3] = target: T2, recombinant human JAK1 kinase domain protein (Residues 854-1154) (Homo sapiens, UniProt P23458); assay: JAK1 biochemical assay (microfluidic mobility shift, peptide phosphorylation); conditions: 25 μM ATP, 1 nM total JAK1; Ki calculated from Ki app (tight-binding, competitive); read-out: Biochem JAK1 Ki
# T2 construct: human JAK1 kinase domain protein (Residues 854-1154); purchased Proteros Biostructures GmbH (Martinsried, Germany); host or cells: insect cells
# In short: as §1
# T2 sequence (P23458 854-1154): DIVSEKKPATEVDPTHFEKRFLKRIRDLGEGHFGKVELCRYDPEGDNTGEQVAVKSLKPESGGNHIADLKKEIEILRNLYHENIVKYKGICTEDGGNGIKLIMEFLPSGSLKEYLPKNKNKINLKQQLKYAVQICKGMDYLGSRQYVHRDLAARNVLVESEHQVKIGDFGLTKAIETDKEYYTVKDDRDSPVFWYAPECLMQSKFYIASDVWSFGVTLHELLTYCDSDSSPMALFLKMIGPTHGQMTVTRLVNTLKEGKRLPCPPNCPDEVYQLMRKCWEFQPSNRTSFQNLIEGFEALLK
# T1 sequence (O60674 812-1132): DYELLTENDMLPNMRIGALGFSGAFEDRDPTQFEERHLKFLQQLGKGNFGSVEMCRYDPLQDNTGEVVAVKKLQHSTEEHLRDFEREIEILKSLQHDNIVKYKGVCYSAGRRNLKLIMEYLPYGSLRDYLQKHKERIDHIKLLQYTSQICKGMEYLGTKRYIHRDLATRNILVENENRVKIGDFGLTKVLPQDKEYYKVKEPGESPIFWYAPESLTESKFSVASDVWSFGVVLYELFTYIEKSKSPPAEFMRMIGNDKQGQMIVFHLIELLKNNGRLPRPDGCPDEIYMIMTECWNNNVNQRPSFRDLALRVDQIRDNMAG
SMILES,Ki [1],Ki [3],IC50 [2]
"CN1CCN(CCn2nnnc2Cn2cc(NC(=O)c3cnn4cccnc34)c(-c3cc(Cl)ccc3OC(F)F)n2)CC1 [Example 42, N-[3-[5-chloro-2-(difluoromethoxy)phenyl]-1-[[1-[2-(4-methylpiperazin-1-yl)ethyl]tetrazol-5-yl]methyl]pyrazol-4-yl]pyrazolo[1,5-a]pyrimidine-3-carboxamide]",0.22 nM,0.33 nM,16 nM
"CN(C)CCn1nnc(Cn2cc(NC(=O)c3cnn4cccnc34)c(-c3cc4c(cc3OC(F)F)NCCO4)n2)n1 [Example 43, N-[3-[6-(difluoromethoxy)-3,4-dihydro-2H-1,4-benzoxazin-7-yl]-1[[2-[2-(dimethylamino)ethyl]tetrazol-5-yl]methyl]pyrazol-4-yl]pyrazolo[1,5-a]pyrimidine-3-carboxamide]",0.34 nM,0.86 nM,36 nM
"CN(C)CCn1nnnc1Cn1cc(NC(=O)c2cnn3cccnc23)c(-c2cc3c(cc2OC(F)F)NCCO3)n1 [Example 44, N-[3-[6-(difluoromethoxy)-3,4-dihydro-2H-1,4-benzoxazin-7-yl]-1-[[1-[2-(dimethylamino)ethyl]tetrazol-5-yl]methyl]pyrazol-4-yl]pyrazolo[1,5-a]pyrimidine-3-carboxamide]",0.47 nM,0.71 nM,25 nM
"CN1CC(N(C)CCn2nnnc2Cn2cc(NC(=O)c3cnn4cccnc34)c(-c3cc(OC(F)F)ccc3OC(F)F)n2)C1 [Example 45, N-[3-[2,5-bis(difluoromethoxy)phenyl]-1-[[1-[2-[methyl-(1-methylazetidin-3-yl)amino]ethyl]tetrazol-5-yl]methyl]pyrazol-4-yl]pyrazolo[1,5-a]pyrimidine-3-carboxamide]",0.65 nM,0.81 nM,81 nM
"CSc1ccc(OC(F)F)c(-c2nn(Cc3nnn(C4CN(CCN(C)C)C4)n3)cc2NC(=O)c2cnn3cccnc23)c1 [Example 47, N-[3-[2-(difluoromethoxy)-5-methylsulfanyl-phenyl]-1-[[2-[1-[2-(dimethylamino)ethyl]azetidin-3-yl]tetrazol-5-yl]methyl]pyrazol-4-yl]pyrazolo[1,5-a]pyrimidine-3-carboxamide]",0.32 nM,0.46 nM,16 nM
"CN1CC(N(C)CCn2nnc(Cn3cc(NC(=O)c4cnn5cccnc45)c(-c4cc(OC(F)F)ccc4OC(F)F)n3)n2)C1 [Example 48, N-[3-[2,5-bis(difluoromethoxy)phenyl]-1-[[2-[2-[methyl-(1-methylazetidin-3-yl)amino]ethyl]tetrazol-5-yl]methyl]pyrazol-4-yl]pyrazolo[1,5-a]pyrimidine-3-carboxamide]",0.54 nM,0.63 nM,15 nM
"CN(C)CCN1CC(n2nnc(Cn3cc(NC(=O)c4cnn5cccnc45)c(-c4cc(C5CC5)ccc4OC(F)F)n3)n2)C1 [Example 50, N-[3-[5-cyclopropyl-2-(difluoromethoxy)phenyl]-1-[[2-[1-[2-(dimethylamino)ethyl]azetidin-3-yl]tetrazol-5-yl]methyl]pyrazol-4-yl]pyrazolo[1,5-a]pyrimidine-3-carboxamide]",0.44 nM,0.5 nM,16 nM
"CN(C)CCCN1CC(n2nnc(Cn3cc(NC(=O)c4cnn5cccnc45)c(-c4cc(OC(F)F)ccc4OC(F)F)n3)n2)C1 [Example 51, N-[3-[2,5-bis(difluoromethoxy)phenyl]-1-[[2-[1-[3-(dimethylamino)propyl]azetidin-3-yl]tetrazol-5-yl]methyl]pyrazol-4-yl]pyrazolo[1,5-a]pyrimidine-3-carboxamide]",0.37 nM,0.37 nM,12 nM

# The next lines start with results.
Ki [1],Ki [3],SMILES,IC50 [2]
0.58 nM,0.6 nM,"CN(C)CCCCN1CC(n2nnc(Cn3cc(NC(=O)c4cnn5cccnc45)c(-c4cc(OC(F)F)ccc4OC(F)F)n3)n2)C1 [Example 55, N-[3-[2,5-bis(difluoromethoxy)phenyl]-1-[[2-[1-[4-(dimethylamino)butyl]azetidin-3-yl]tetrazol-5-yl]methyl]pyrazol-4-yl]pyrazolo[1,5-a]pyrimidine-3-carboxamide]",44 nM
0.73 nM,0.84 nM,"CN1CC(CN2CC(n3nnc(Cn4cc(NC(=O)c5cnn6cccnc56)c(-c5cc(OC(F)F)ccc5OC(F)F)n4)n3)C2)C1 [Example 56, N-[3-[2,5-bis(difluoromethoxy)phenyl]-1-[[2-[1-[(1-methylazetidin-3-yl)methyl]azetidin-3-yl]tetrazol-5-yl]methyl]pyrazol-4-yl]pyrazolo[1,5-a]pyrimidine-3-carboxamide]",80 nM
0.55 nM,0.71 nM,"CN(C)CCCN1CC(n2nnc(Cn3cc(NC(=O)c4cnn5cccnc45)c(-c4cc(C5CC5)ccc4OC(F)F)n3)n2)C1 [Example 57, N-[3-[5-cyclopropyl-2-(difluoromethoxy)phenyl]-1-[[2-[1-[3-(dimethylamino)propyl]azetidin-3-yl]tetrazol-5-yl]methyl]pyrazol-4-yl]pyrazolo[1,5-a]pyrimidine-3-carboxamide]",73 nM
0.71 nM,1 nM,"CN(C)C1CCN(CCn2nnc(Cn3cc(NC(=O)c4cnn5cccnc45)c(-c4cc(OC(F)F)ccc4OC(F)F)n3)n2)CC1 [Example 59, N-[3-[2,5-bis(difluoromethoxy)phenyl]-1-[[2-[2-[4-(dimethylamino)-1-piperidyl]ethyl]tetrazol-5-yl]methyl]pyrazol-4-yl]pyrazolo[1,5-a]pyrimidine-3-carboxamide]",62 nM
0.97 nM,0.81 nM,"CN(C)C1CCN(CCn2nnnc2Cn2cc(NC(=O)c3cnn4cccnc34)c(-c3cc(OC(F)F)ccc3OC(F)F)n2)CC1 [Example 60, N-[3-[2,5-bis(difluoromethoxy)phenyl]-1-[[1-[2-[4-(dimethylamino)-1-piperidyl]ethyl]tetrazol-5-yl]methyl]pyrazol-4-yl]pyrazolo[1,5-a]pyrimidine-3-carboxamide]",70 nM
0.38 nM,0.66 nM,"CN(C)CCCN1CC(n2nnc(Cn3cc(NC(=O)c4cnn5cccnc45)c(-c4cc(Cl)ccc4OC(F)F)n3)n2)C1 [Example 62, N-[3-[5-chloro-2-(difluoromethoxy)phenyl]1-[[2-[1-[3-(dimethylamino)propyl]azetidin-3-yl]tetrazol-5-yl]methyl]pyrazol-4-yl]pyrazolo[1,5-a]pyrimidine-3-carboxamide]",38 nM
0.46 nM,0.64 nM,"CN(C)[C@H]1C[C@@H](n2nnc(Cn3cc(NC(=O)c4cnn5cccnc45)c(-c4cc(OC(F)F)ccc4OC(F)F)n3)n2)C1 [Example 63, N-[3-[2,5-bis(difluoromethoxy)phenyl]-1-[[2-[3-(dimethylamino)cyclobutyl]tetrazol-5-yl]methyl]pyrazol-4-yl]pyrazolo[1,5-a]pyrimidine-3-carboxamide]",22 nM
0.55 nM,0.87 nM,"CN(C)[C@H]1C[C@H](n2nnc(Cn3cc(NC(=O)c4cnn5cccnc45)c(-c4cc(OC(F)F)ccc4OC(F)F)n3)n2)C1 [Example 64, N-[3-[2,5-bis(difluoromethoxy)phenyl]-1-[[2-[3-(dimethylamino)cyclobutyl]tetrazol-5-yl]methyl]pyrazol-4-yl]pyrazolo[1,5-a]pyrimidine-3-carboxamide; formic acid]",17 nM
